{"source": "patent US20110105326A1", "about": "“Method for Enhancing the Rainfastness of Glyphosate” (BASF SE, priority 2008, published 2011)", "format_in_all_cases": "in vivo", "key": {"[1]": {"system": "Echinochloa colonum (ECHCO)", "test": "herbicidal action with/without simulated rainfall after treatment, Echinochloa colonum", "set-up": "key: % damage vs untreated control; 0 = no damage, 100 = complete destruction", "details": "180 g/ha lactofen, 1080 g/ha glyphosate; for herbicidal action against Echinochloa colonum (ECHCO): control without simulated rainfall, Example 12.1", "procedure": "(§1) The enhancement of the rainfastness of glyphosate was determined via the herbicidal activity of the mixture comprising glyphosate and the respective rainfastness enhancing herbicidal component B as well as of the single herbicidal components in relation to simulated rainfall at different time intervals.\n(§2) The evaluation of the damage caused by the method and the compositions the according to the present invention and the single herbicidal components was carried out using a scale from 0 to 100%, compared to the untreated control plots. Here, 0 means no damage and 100 means complete destruction of the plants of a respective weed or crop species.\n(§3) The application was performed with a fixed spayer system with air pressurization and with a tank spray volume of two liters. The speed of the spray device over the plants was adjusted for a spray volume of 200 I/ha. The spray device was a spray barr with four nozzles from the type Teejet XR 11002VS with a space of 50 cm between each nozzle.\n(§4) The application was performed at a weed stage of 6 to 8 leaves. After the application of the formulated herbicides the leaves were washed through rain of 20 mm using a fixed rain simulator system at following time interval: 15 min, 30 min, 1, 2, 3, 4 and 6 hours after treatment."}, "[2]": {"system": "Brachiaria decumbens (BRADE)", "test": "herbicidal action with/without simulated rainfall after treatment, Brachiaria decumbens", "set-up": "key: % damage vs untreated control; 0 = no damage, 100 = complete destruction", "details": "180 g/ha lactofen, 1080 g/ha glyphosate; for herbicidal action against Brachiaria decumbens (BRADE): control without simulated rainfall, Example 14.1; for herbicidal action aaainst BRADE: simulated rainfall 30 min after treatment, Example 14.2; for herbicidal action against BRADE: simulated rainfall 6 hours after treatment, Example 14.3", "procedure": "as §1, §2, §3, §4"}, "[3]": {"system": "Euphorbia heterophylla (EUPHO)", "test": "herbicidal action with/without simulated rainfall after treatment, Euphorbia heterophylla", "set-up": "key: % damage vs untreated control: 0 = no damage, 100 = complete destruction", "details": "180 g/ha lactofen, 1080 g/ha glyphosate; for herbicidal action against Euphorbia heterophylla (EUPHO): control without simulated rainfall, Example 13.1", "procedure": "as §1, §2, §3, §4"}}, "data": [{"molecule": "CCOC(=O)C(C)OC(=O)c1cc(Oc2ccc(C(F)(F)F)cc2Cl)ccc1[N+](=O)[O-]", "note": "(stereo not drawn) [Lactofen, lactofen]", "values": [{"measurement": "herbicidal action against Echinochloa colonum (ECHCO)", "setting": "[1]; 2 DAA", "result": 61.66}, {"measurement": "herbicidal action against Echinochloa colonum (ECHCO)", "setting": "[1]; 3 DAA", "result": 76.66}, {"measurement": "herbicidal action against Echinochloa colonum (ECHCO)", "setting": "[1]; 7 DAA", "result": 75.33}, {"measurement": "herbicidal action against ECHCO", "setting": "[1]; simulated rainfall 15 min after treatment, 2 DAA, Example 12.2", "result": 46.66}, {"measurement": "herbicidal action against ECHCO", "setting": "[1]; simulated rainfall 15 min after treatment, 3 DAA, Example 12.2", "result": 57.66}, {"measurement": "herbicidal action against ECHCO", "setting": "[1]; simulated rainfall 15 min after treatment, 7 DAA, Example 12.2", "result": 46.33}, {"measurement": "herbicidal action against ECHCO", "setting": "[1]; simulated rainfall 30 min after treatment, 2 DAA, Example 12.3", "result": 53}, {"measurement": "herbicidal action against ECHCO", "setting": "[1]; simulated rainfall 30 min after treatment, 3 DAA, Example 12.3", "result": 60}, {"measurement": "herbicidal action against ECHCO", "setting": "[1]; simulated rainfall 30 min after treatment, 7 DAA, Example 12.3", "result": 46}, {"measurement": "herbicidal action against ECHCO", "setting": "[1]; simulated rainfall 2 hours after treatment, 2 DAA, Example 12.4", "result": 48.33}, {"measurement": "herbicidal action against ECHCO", "setting": "[1]; simulated rainfall 2 hours after treatment, 3 DAA, Example 12.4", "result": 63.33}, {"measurement": "herbicidal action against ECHCO", "setting": "[1]; simulated rainfall 2 hours after treatment, 7 DAA, Example 12.4", "result": 39.33}, {"measurement": "herbicidal action against Brachiaria decumbens (BRADE)", "setting": "[2]; 1 DAA", "result": 5}, {"measurement": "herbicidal action against Brachiaria decumbens (BRADE)", "setting": "[2]; 2 DAA", "result": 9}, {"measurement": "herbicidal action against Brachiaria decumbens (BRADE)", "setting": "[2]; 3 DAA", "result": 8.66}, {"measurement": "herbicidal action against Brachiaria decumbens (BRADE)", "setting": "[2]; 7 DAA", "result": 14}, {"measurement": "herbicidal action aaainst BRADE", "setting": "[2]; 1 DAA", "result": 5}, {"measurement": "herbicidal action aaainst BRADE", "setting": "[2]; 2 DAA", "result": 18.33}, {"measurement": "herbicidal action aaainst BRADE", "setting": "[2]; 3 DAA", "result": 24.66}, {"measurement": "herbicidal action aaainst BRADE", "setting": "[2]; 7 DAA", "result": 26}, {"measurement": "herbicidal action against BRADE", "setting": "[2]; 1 DAA", "result": 9.66}, {"measurement": "herbicidal action against BRADE", "setting": "[2]; 2 DAA", "result": 16}, {"measurement": "herbicidal action against BRADE", "setting": "[2]; 3 DAA", "result": 22.66}, {"measurement": "herbicidal action against BRADE", "setting": "[2]; 7 DAA", "result": 25.33}, {"measurement": "herbicidal action against Euphorbia heterophylla (EUPHO)", "setting": "[3]; 1 DAA", "result": 9.66}, {"measurement": "herbicidal action against Euphorbia heterophylla (EUPHO)", "setting": "[3]; 2 DAA", "result": 19}, {"measurement": "herbicidal action against Euphorbia heterophylla (EUPHO)", "setting": "[3]; 3 DAA", "result": 37}, {"measurement": "herbicidal action against Euphorbia heterophylla (EUPHO)", "setting": "[3]; 7 DAA", "result": 47}, {"measurement": "herbicidal action against EUPHO", "setting": "[3]; simulated rainfall 15 min after treatment, 1 DAA, Example 13.2", "result": 20.66}, {"measurement": "herbicidal action against EUPHO", "setting": "[3]; simulated rainfall 15 min after treatment, 2 DAA, Example 13.2", "result": 39}, {"measurement": "herbicidal action against EUPHO", "setting": "[3]; simulated rainfall 15 min after treatment, 3 DAA, Example 13.2", "result": 40}, {"measurement": "herbicidal action against EUPHO", "setting": "[3]; simulated rainfall 15 min after treatment, 7 DAA, Example 13.2", "result": 74.33}, {"measurement": "herbicidal action against EUPHO", "setting": "[3]; simulated rainfall 2 hours after treatment, 1 DAA, Example 13.3", "result": 18}, {"measurement": "herbicidal action against EUPHO", "setting": "[3]; simulated rainfall 2 hours after treatment, 2 DAA, Example 13.3", "result": 42}, {"measurement": "herbicidal action against EUPHO", "setting": "[3]; simulated rainfall 2 hours after treatment, 3 DAA, Example 13.3", "result": 39}, {"measurement": "herbicidal action against EUPHO", "setting": "[3]; simulated rainfall 2 hours after treatment, 7 DAA, Example 13.3", "result": 73.33}]}]}
